For orientation: Ki means a measure of affinity in units of concentration, obtained from inhibition or displacement.

The text below walks through data of patent US10577360B2, “Arylamide derivatives having multimodal activity against pain” (ESTEVE PHARMACEUTICALS, S.A., priority 2016, dated 2020).

For the assay, the target named is Human α2δ-1 subunit of Cav2.2 calcium channel (Homo sapiens (Human), UniProt P54289). Nature of the assay: Human α2δ-1 subunit of Cav2.2 calcium channel assay ([3H]-Gabapentin binding).
[1] abbreviates: [3H]-Gabapentin binding, read-out: α2δ − 1 (Ki).

Like-named read-outs stand apart in the source and are kept apart here.

Sequence of Human α2δ-1 subunit of Cav2.2 calcium channel (P54289 25-1103): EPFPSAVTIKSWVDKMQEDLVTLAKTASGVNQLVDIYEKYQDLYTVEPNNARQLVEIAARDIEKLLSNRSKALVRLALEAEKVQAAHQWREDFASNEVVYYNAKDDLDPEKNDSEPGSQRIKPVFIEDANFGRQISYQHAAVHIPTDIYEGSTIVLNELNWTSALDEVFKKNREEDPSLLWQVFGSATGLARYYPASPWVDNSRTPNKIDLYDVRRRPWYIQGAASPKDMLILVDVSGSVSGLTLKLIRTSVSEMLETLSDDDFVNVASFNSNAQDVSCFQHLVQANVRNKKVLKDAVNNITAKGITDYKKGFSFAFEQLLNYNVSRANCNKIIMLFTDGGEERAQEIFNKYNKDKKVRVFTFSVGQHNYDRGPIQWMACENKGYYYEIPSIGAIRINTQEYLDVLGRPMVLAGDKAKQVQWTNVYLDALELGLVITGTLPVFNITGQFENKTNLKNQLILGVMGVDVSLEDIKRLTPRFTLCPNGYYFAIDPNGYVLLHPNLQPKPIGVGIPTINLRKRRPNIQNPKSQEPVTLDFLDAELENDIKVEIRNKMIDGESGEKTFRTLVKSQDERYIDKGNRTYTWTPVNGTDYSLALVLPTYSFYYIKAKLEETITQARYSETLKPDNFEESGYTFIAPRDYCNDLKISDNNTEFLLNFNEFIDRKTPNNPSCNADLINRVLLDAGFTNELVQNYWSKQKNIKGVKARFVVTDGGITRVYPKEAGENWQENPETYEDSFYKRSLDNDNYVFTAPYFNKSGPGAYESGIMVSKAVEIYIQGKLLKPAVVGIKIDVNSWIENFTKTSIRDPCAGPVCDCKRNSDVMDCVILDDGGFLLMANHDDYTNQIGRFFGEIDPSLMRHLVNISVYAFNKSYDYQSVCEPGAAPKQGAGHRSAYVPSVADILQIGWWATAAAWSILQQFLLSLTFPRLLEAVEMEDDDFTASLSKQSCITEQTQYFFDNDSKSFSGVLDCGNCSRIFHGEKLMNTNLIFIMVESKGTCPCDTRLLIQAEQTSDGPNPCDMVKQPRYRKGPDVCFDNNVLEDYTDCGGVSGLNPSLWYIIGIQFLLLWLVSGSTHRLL

`CN1CCCC(N(C(=O)c2cccs2)c2ccn(-c3ccccc3)n2)CC1` (stereo not drawn) [Example 39, N-(1-Methylazepan-4-yl)-N-(1-phenyl-1H-pyrazol-3-yl)thiophene-2-carboxamide]: the inhibition constant Ki fell in the range of 0.1 to 0.5 µM.
With `O=C(c1cccs1)N(c1ccn(-c2ccccc2)n1)C1CCCNC1` (stereo not drawn) [Example 53, N-(1-Phenyl-1H-pyrazol-3-yl)-N-(piperidin-3-yl)thiophene-2-carboxamide], the Ki lay within 0.5 to 5 µM.
The same measure, in the same setting: the result for `O=C(c1cccs1)N(CCNCc1ccccc1)c1ccn(-c2ccccc2)n1` [Example 55, N-[2-(Benzylamino)ethyl]-N-(1-phenyl-1H-pyrazol-3-yl)thiophene-2-carboxamide] reads 0.5 to 5 µM; that for `O=C(c1cccs1)N(CCCNCc1ccccc1)c1ccn(-c2ccccc2)n1` [Example 56, N-[3-(Benzylamino)propyl]-N-(1-phenyl-1H-pyrazol-3-yl)thiophene-2-carboxamide], 0.5 to 5 µM.
On the same count and under the same terms, the value for `CNCCN(C(=O)c1cccs1)c1ccn(-c2ccccc2)n1` [Example 57, N-[2-(Methylamino)ethyl]-N-(1-phenyl-1H-pyrazol-3-yl)thiophene-2-carboxamide] was 0.5 to 5 µM; that for `CN(CCN(C(=O)c1cccs1)c1ccn(-c2ccccc2)n1)Cc1ccccc1` [Example 61, N-{2-[Benzyl(methyl)amino]ethyl}-N-(1-phenyl-1H-pyrazol-3-yl)thiophene-2-carboxamide] was 0.5 to 5 µM.
On the same count and under the same terms, the value for `CN(CCCN(C(=O)c1cccs1)c1ccn(-c2ccccc2)n1)Cc1ccccc1` [Example 62, N-{3-[Benzyl(methyl)amino]propyl}-N-(1-phenyl-1H-pyrazol-3-yl)thiophene-2-carboxamide] was 0.5 to 5 µM.
For `CCN(C)CCN(C(=O)c1cccs1)c1ccn(-c2ccccc2)n1` [Example 63], the Ki was 0.5 to 5 µM.
`CN(CCN(C(=O)c1cccs1)c1ccn(-c2ccccc2)n1)Cc1ccncc1` [Example 64, N-{2-[Methyl(pyridin-4-ylmethyl)amino]ethyl}-N-(1-phenyl-1H-pyrazol-3-yl)thiophene-2-carboxamide]: the inhibitory constant (Ki) under setting [1] was greater than 5 µM.
Regarding `CN(CCN(C(=O)c1cccs1)c1ccn(-c2ccccc2)n1)Cc1cccnc1` [Example 65], under setting [1], the Ki lay within 0.5 to 5 µM.
Regarding `CN1CCCC(N(C(=O)c2cccs2)c2ccn(-c3ccccc3)n2)C1` (stereo not drawn) [Example 67, N-(1-Methylpiperidin-3-yl)-N-(1-phenyl-1H-pyrazol-3-yl)thiophene-2-carboxamide], the Ki (read-out: α2δ − 1 (Ki)) was greater than 5 µM.
For `CCNCCN(C(=O)c1cccs1)c1ccn(-c2ccccc2)n1` [Example 68, N-[2-(Ethylamino)ethyl]-N-(1-phenyl-1H-pyrazol-3-yl)thiophene-2-carboxamide], the inhibitory constant (Ki) was in the range of 0.5 to 5 µM.
Same read-out and setting: the value for `Cc1nnc(-c2cccc(-n3ccc(N(CCN(C)Cc4ccccc4)C(=O)c4cccs4)n3)c2)o1` [Example 69, N-{2-[Benzyl(methyl)amino]ethyl}-N-{1-[3-(5-methyl-1,3,4-oxadiazol-2-yl)phenyl]-1H-pyrazol-3-yl}thiophene-2-carboxamide] was 0.1 to 0.5 µM.
As for `CN(C)C1CCC(N(C(=O)c2cccs2)c2ccn(-c3ccccc3)n2)CC1` (stereo not drawn) [Example 127, N-[4-(Dimethylamino)cyclohexyl]-N-(1-phenyl-1H-pyrazol-3-yl)thiophene-2-carboxamide], under setting [1], the Ki is greater than 5 µM.
For the molecule `CN(Cc1ccccc1)C1CCC(N(C(=O)c2cccs2)c2ccn(-c3ccccc3)n2)CC1` (stereo not drawn) [Example 128, N-{4-[Benzyl(methyl)amino]cyclohexyl}-N-(1-phenyl-1H-pyrazol-3-yl)thiophene-2-carboxamide], under setting [1], the Ki is greater than 5 µM.
The same measure, in the same setting: the value for `Cc1nnc(-c2cccc(-n3ccc(N(C(=O)c4cccs4)[C@H]4CC[C@H](N(C)C)CC4)n3)c2)o1` [Example 149, N-[(1r,4r)-4-(Dimethylamino)cyclohexyl]-N-{1-[3-(5-methyl-1,3,4-oxadiazol-2-yl)phenyl]-1H-pyrazol-3-yl}thiophene-2-carboxamide] was greater than 5 µM.
Same read-out and setting: the result for `Cc1nnc(-c2cccc(-n3ccc(N(C(=O)c4cccc(O)c4)[C@H]4CC[C@H](N(C)C)CC4)n3)c2)o1` [Example 150, N-[(1r,4r)-4-(Dimethylamino)cyclohexyl]-3-hydroxy-N-{1-[3-(5-methyl-1,3,4-oxadiazol-2-yl)phenyl]-1H-pyrazol-3-yl}benzamide] reads greater than 5 µM.
On the same count and under the same terms, the result for `Cc1nnc(-c2cccc(-n3ccc(N(C(=O)c4cccs4)[C@H]4CC[C@H](N(C)Cc5ccccc5)CC4)n3)c2)o1` [Example 151, N-{(1r,4r)-4-[Benzyl(methyl)amino]cyclohexyl}-N-{1-[3-(5-methyl-1,3,4-oxadiazol-2-yl)phenyl]-1H-pyrazol-3-yl}thiophene-2-carboxamide] reads greater than 5 µM; that for `Cc1nnc(-c2cccc(-n3ccc(N(C(=O)c4cccs4)[C@H]4CC[C@@H](N(C)Cc5ccccc5)CC4)n3)c2)o1` [Example 152, N-{(1s,4s)-4-[Benzyl(methyl)amino]cyclohexyl}-N-{1-[3-(5-methyl-1,3,4-oxadiazol-2-yl)phenyl]-1H-pyrazol-3-yl}thiophene-2-carboxamide], greater than 5 µM; that for `Cc1nnc(-c2cccc(-n3ccc(N(C(=O)c4cccc(O)c4)[C@H]4CC[C@H](N(C)Cc5ccccc5)CC4)n3)c2)o1` [Example 153, N-{(1r,4r)-4-[Benzyl(methyl)amino]cyclohexyl}-3-hydroxy-N-{1-[3-(5-methyl-1,3,4-oxadiazol-2-yl)phenyl]-1H-pyrazol-3-yl}benzamide], greater than 5 µM.
As to `Cc1nnc(-c2cccc(-n3ccc(N(C(=O)c4cccc(O)c4)[C@H]4CC[C@@H](N(C)Cc5ccccc5)CC4)n3)c2)o1` [Example 154, N-{(1s,4s)-4-[Benzyl(methyl)amino]cyclohexyl}-3-hydroxy-N-{1-[3-(5-methyl-1,3,4-oxadiazol-2-yl)phenyl]-1H-pyrazol-3-yl}benzamide], the Ki under setting [1] was greater than 5 µM.
